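1) Cells in 96-well plates. 2) Compound, 48 h, 5 concentrations. 3) Linear interpolation between surrounding doses. 4) Unreached endpoint = highest concentration. Abbreviation: GI50, concentration required for 50% inhibition of growth. TGI: total growth inhibition.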
How the values were obtained:
Assay in all cases: NCI-60 cell line screen, 48 h
DLD-1 colon = system: DLD-1 colon
DMS 273 small cell lung = system: DMS 273 small cell lung
HCC-2998 colon = system: HCC-2998 colon
OVCAR-4 ovarian = system: OVCAR-4 ovarian
SF-295 CNS = system: SF-295 CNS
SK-MEL-28 melanoma = system: SK-MEL-28 melanoma
SN12C renal = system: SN12C renal
UACC-257 melanoma = system: UACC-257 melanoma
UACC-62 melanoma = system: UACC-62 melanoma
MCF7 breast = system: MCF7 breast

SMILES | TGI (DLD-1 colon) [µM] | TGI (DMS 273 small cell lung) [µM] | TGI (HCC-2998 colon) [µM] | TGI (OVCAR-4 ovarian) [µM] | TGI (SF-295 CNS) [µM] | TGI (SK-MEL-28 melanoma) [µM] | TGI (SN12C renal) [µM] | TGI (UACC-257 melanoma) [µM] | TGI (UACC-62 melanoma) [µM] | GI50 (HCC-2998 colon) [µM] | GI50 (MCF7 breast) [µM] | TGI (MCF7 breast) [µM] | GI50 (OVCAR-4 ovarian) [µM] | GI50 (SF-295 CNS) [µM] | GI50 (SK-MEL-28 melanoma) [µM] | GI50 (SN12C renal) [µM] | GI50 (UACC-257 melanoma) [µM] | GI50 (UACC-62 melanoma) [µM] | GI50 (DLD-1 colon) [µM] | GI50 (DMS 273 small cell lung) [µM]
N#Cc1cccc(C2C(=O)c3ccc(C(=O)c4ccc5c(c4)C(=O)N(c4ccc(Oc6ccc(N7C(=O)c8ccc(C(=O)c9ccc%10c(c9)C(=O)N(c9cccc(C#N)c9)C%10=O)cc8C7=O)cc6)cc4)C5=O)cc3C2=O)c1 (centres undefined) | > 100 | > 100 | > 100 | > 100 | > 100 | > 100 | > 100 | > 100 | > 100 | – | – | – | – | – | – | – | – | – | – | –
COc1ccc([C@@H]2OC(=O)C3C2C(=O)O[C@H]3c2ccc(OC)cc2)cc1 (some centres undefined) | > 100 | > 100 | > 100 | > 100 | > 100 | > 100 | > 100 | > 100 | > 100 | – | – | – | – | – | – | – | – | – | – | –
CSC1=Nc2ccccc2N=C(c2ccccc2)C1 | > 100 | > 100 | > 100 | > 100 | > 100 | > 100 | > 100 | > 100 | > 100 | – | – | – | – | – | – | – | – | – | – | –
CC1=C(C(=O)Nc2ccc(C)cc2)C(c2cccc([N+](=O)[O-])c2)C(C(=O)Nc2ccc(C)cc2)=C(C)N1 | > 100 | > 100 | > 100 | > 100 | 82.3 | > 100 | 67.4 | 56.7 | 30.4 | – | – | – | – | – | – | – | – | – | – | –
CC[As](CC)SCC1OC(OC(C)=O)C(OC(C)=O)C(OC(C)=O)C1OC(C)=O (centres undefined) | 30.9 | 29.4 | 31.7 | 37 | 35.7 | 15.7 | 28.4 | 28.6 | 27.2 | – | – | – | – | – | – | – | – | – | – | –
COc1ccc2nc3ccccc3c(NCCN(CCCl)CCCl)c2c1 | 4.04 | – | 2.73 | 3.14 | 10 | 5.28 | 4.21 | 3.99 | 2.3 | – | – | – | – | – | – | – | – | – | – | –
O=C1OCC2=C1C(c1cccc(Cl)c1)c1cc3c(cc1N2CCO)CCC3 (centres undefined) | – | – | 2.93 | 19.5 | 11.9 | 20.2 | 11.9 | 15.6 | 15.3 | 0.0922 | 0.0363 | 12.9 | 0.0609 | 0.0301 | 0.0574 | 0.0759 | 0.0354 | 0.0427 | – | –
CCN(CC)C(=O)CC12CCCCC1=Nc1ccccc12 (centres undefined) | > 100 | > 100 | > 100 | > 100 | > 100 | > 100 | – | > 100 | > 100 | – | – | – | – | – | – | – | – | – | – | –
COC(=O)c1cccc(NC(=O)c2ccc(NC3=C(Cl)C(=O)N(Cc4ccccc4)C3=O)cc2)c1 | – | – | 3.77 | 56.1 | 57.8 | 52 | 23.6 | 50.2 | 25.4 | 2.04 | 22.3 | 49.7 | 16.1 | 17.6 | 15.2 | 4.69 | 15.4 | 11.7 | – | –
CC[C@@H](C)/C=C(C)/C=C/C(=O)c1c(O)c(-c2ccc(O)cc2)cn(OC2CC(=O)CCC(C)OC(=O)CC2O)c1=O (some centres undefined) | – | – | 13.6 | 26 | 4.89 | 19.5 | 13.8 | 8.87 | 1.15 | 2.53 | 0.366 | 17 | 0.233 | 0.331 | 0.552 | 0.445 | 0.368 | 0.279 | – | –
CN(C)c1ccc(/C=c2/c3cc(O)ccc3n3c2cc(-c2ccccc2)[n+]3C)cc1 | – | – | > 100 | > 100 | > 100 | 2.36 | – | 3.07 | – | – | 1.18 | > 100 | 2.83 | – | – | 0.187 | – | > 100 | – | –
[CH3][Hg]/[N]=C(/N)NC#N | 16.9 | 27.5 | – | 9.31 | 54.5 | 30.1 | 28.5 | 17.4 | 23.9 | – | – | – | 3.23 | 18.5 | 11.9 | 14 | 5.1 | 11.4 | 4.27 | 13.5
O=C(CC1(O)C(=O)Nc2ccccc21)c1ccccc1O (centres undefined) | > 100 | > 100 | – | > 100 | > 100 | > 100 | > 100 | > 100 | > 100 | – | – | – | – | – | – | – | – | – | – | –
COc1cc2c(cc1-c1coc3cc(O)ccc3c1=O)OCO2 | – | – | > 100 | 44.3 | 38.9 | > 100 | 67.2 | 85.1 | 63.9 | – | – | 90.9 | – | – | – | – | – | – | – | –
O=C(CN1CCN(C(=O)c2ccco2)CC1)Nc1ccc(Cl)cc1C(=O)c1ccccc1Cl | – | – | 29.4 | 31.5 | 15.4 | 23.9 | 44.7 | 31.8 | 23.4 | 14.8 | 5.31 | 21.7 | 5.91 | 3.13 | 11.6 | 14.6 | 12.5 | 8.85 | – | –
COc1ccc(/C=C\c2cc(OC)c(OC)c(OC)c2)c(NS(=O)(=O)c2ccc(F)cc2)c1O | – | – | 6.9 | > 100 | > 45.9 | > 100 | > 100 | > 100 | > 80.1 | 0.169 | 0.0483 | > 46.3 | 0.552 | 0.214 | 0.484 | 0.18 | 20.5 | 0.0452 | – | –
O=C(N/N=C/c1ccncc1)c1ccc(F)cc1 | – | – | > 40 | > 40 | > 40 | > 40 | > 40 | > 40 | > 40 | > 40 | > 40 | > 40 | > 40 | > 40 | > 40 | > 40 | > 40 | > 40 | – | –
